Experiment [1] deals with cAMP-dependent protein kinase catalytic subunit alpha (Homo sapiens, UniProt P17612). The experiment is described as follows: Percentage PKA activity remaining in the presence of […]uM inhibitor. Particulars: at 25 µM.
In experiment [2] the target is Serine/threonine-protein kinase Nek7 (Homo sapiens) (UniProt Q8TDX7). In words: Percentage NEK7 activity remaining in the presence of 25uM inhibitor.
Experiment [3] has as its target T1, Mitogen-activated protein kinase 13 (Homo sapiens) (UniProt O15264).
T1 sequence (whole entry): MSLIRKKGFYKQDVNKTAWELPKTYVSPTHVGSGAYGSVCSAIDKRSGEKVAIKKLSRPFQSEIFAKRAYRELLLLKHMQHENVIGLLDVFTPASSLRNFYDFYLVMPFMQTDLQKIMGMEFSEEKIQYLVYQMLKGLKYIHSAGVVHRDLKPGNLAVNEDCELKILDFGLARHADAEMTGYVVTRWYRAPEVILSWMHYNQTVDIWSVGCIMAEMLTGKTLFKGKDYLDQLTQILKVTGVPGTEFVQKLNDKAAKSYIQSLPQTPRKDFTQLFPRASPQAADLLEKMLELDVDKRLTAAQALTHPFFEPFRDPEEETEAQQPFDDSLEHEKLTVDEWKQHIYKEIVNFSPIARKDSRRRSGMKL
The experiment is described as follows: Percentage p38delta activity remaining in the presence of 25uM inhibitor.

Experiment [4] deals with T2, Serine/threonine-protein kinase D1 (Homo sapiens) (UniProt Q15139).
T2 sequence (whole entry): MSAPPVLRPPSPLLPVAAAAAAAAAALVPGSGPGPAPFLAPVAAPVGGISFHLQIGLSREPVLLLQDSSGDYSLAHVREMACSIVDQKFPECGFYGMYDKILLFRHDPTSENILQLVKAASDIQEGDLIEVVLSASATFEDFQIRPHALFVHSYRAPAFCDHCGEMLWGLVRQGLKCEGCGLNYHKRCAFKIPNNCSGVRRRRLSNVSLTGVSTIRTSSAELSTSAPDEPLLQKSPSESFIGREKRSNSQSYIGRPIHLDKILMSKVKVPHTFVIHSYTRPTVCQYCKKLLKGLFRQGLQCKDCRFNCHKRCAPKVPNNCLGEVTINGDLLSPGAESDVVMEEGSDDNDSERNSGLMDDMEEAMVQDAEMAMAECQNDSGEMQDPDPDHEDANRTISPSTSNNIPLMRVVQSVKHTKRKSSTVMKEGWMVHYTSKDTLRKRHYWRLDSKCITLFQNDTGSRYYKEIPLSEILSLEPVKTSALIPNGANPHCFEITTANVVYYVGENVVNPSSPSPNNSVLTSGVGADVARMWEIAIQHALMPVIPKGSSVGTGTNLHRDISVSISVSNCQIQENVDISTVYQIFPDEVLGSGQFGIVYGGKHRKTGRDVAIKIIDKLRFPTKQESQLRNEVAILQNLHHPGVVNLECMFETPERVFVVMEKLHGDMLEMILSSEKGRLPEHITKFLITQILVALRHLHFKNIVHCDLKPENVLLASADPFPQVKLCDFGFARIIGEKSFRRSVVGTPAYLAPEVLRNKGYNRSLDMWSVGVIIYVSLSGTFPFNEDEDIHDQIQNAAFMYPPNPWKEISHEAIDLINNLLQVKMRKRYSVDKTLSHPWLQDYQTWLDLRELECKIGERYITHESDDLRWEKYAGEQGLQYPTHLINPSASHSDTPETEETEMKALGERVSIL
The experiment is described as follows: Percentage PKD1 activity remaining in the presence of 25uM inhibitor.

In experiment [5] the target is Serine/threonine-protein kinase PAK 6 (Homo sapiens) (UniProt Q9NQU5). The experiment is described as follows: Percentage PAK6 activity remaining in the presence of 25uM inhibitor.
Serine/threonine-protein kinase PAK 6 (Homo sapiens), sequence (Q9NQU5 whole entry, looked up): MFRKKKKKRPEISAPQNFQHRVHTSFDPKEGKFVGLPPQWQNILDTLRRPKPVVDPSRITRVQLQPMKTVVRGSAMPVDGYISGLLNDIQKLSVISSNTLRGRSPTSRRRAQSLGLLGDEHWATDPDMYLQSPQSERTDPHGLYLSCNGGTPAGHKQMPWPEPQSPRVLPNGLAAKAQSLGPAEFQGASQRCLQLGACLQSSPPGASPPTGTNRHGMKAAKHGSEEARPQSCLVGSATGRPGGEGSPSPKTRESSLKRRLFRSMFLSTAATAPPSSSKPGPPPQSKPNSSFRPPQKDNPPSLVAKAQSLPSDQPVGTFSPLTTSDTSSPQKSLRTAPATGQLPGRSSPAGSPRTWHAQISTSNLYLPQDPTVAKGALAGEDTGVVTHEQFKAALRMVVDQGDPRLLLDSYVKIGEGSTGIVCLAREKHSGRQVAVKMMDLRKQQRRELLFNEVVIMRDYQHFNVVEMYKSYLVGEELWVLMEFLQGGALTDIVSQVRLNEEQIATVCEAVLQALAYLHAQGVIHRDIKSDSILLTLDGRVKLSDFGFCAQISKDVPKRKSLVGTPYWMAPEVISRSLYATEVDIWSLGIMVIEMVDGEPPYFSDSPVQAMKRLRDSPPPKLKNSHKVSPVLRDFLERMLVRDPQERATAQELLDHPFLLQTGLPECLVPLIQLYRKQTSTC
For experiment [6], the species on record is Homo sapiens. The experiment is described as follows: Percentage PHK activity remaining in the presence of 25uM inhibitor.
The target of experiment [7] is Serine/threonine-protein kinase pim-1 (Homo sapiens, UniProt P11309). In words: Percentage PIM1 activity remaining in the presence of 25uM inhibitor. Particulars: filed as antagonist.
Serine/threonine-protein kinase pim-1, sequence (P11309 whole entry, looked up): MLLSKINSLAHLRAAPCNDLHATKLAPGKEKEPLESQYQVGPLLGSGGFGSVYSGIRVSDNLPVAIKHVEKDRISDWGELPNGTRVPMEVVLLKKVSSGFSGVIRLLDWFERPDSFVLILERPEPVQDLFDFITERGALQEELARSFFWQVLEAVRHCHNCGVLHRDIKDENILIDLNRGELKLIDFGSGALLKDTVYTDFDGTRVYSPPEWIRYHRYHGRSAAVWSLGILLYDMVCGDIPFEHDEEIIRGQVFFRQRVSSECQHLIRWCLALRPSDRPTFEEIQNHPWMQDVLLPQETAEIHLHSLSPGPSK
Experiment [8] concerns the target T3, Serine/threonine-protein kinase Chk1 (Homo sapiens) (UniProt O14757).
T3 sequence (whole entry): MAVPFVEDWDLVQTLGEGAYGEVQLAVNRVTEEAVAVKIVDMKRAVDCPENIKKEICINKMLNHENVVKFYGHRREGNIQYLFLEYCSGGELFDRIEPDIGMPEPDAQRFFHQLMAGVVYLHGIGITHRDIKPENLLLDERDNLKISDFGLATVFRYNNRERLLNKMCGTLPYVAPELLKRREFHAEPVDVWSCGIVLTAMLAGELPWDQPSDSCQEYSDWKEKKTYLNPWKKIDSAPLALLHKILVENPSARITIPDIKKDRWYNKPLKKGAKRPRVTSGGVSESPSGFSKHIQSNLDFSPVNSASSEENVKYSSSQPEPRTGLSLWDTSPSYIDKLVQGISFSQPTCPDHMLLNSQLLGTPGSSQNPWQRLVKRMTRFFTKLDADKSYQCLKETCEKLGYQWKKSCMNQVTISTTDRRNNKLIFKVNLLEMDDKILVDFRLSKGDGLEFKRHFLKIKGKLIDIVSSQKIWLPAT
The experiment is described as follows: Percentage CHK1 activity remaining in the presence of 25uM inhibitor.

Experiment [9] deals with Homeodomain-interacting protein kinase 2 (Homo sapiens) (UniProt Q9H2X6). In words: Percentage HIPK2 activity remaining in the presence of 25uM inhibitor.
Homeodomain-interacting protein kinase 2 (Homo sapiens), sequence (Q9H2X6 whole entry, looked up): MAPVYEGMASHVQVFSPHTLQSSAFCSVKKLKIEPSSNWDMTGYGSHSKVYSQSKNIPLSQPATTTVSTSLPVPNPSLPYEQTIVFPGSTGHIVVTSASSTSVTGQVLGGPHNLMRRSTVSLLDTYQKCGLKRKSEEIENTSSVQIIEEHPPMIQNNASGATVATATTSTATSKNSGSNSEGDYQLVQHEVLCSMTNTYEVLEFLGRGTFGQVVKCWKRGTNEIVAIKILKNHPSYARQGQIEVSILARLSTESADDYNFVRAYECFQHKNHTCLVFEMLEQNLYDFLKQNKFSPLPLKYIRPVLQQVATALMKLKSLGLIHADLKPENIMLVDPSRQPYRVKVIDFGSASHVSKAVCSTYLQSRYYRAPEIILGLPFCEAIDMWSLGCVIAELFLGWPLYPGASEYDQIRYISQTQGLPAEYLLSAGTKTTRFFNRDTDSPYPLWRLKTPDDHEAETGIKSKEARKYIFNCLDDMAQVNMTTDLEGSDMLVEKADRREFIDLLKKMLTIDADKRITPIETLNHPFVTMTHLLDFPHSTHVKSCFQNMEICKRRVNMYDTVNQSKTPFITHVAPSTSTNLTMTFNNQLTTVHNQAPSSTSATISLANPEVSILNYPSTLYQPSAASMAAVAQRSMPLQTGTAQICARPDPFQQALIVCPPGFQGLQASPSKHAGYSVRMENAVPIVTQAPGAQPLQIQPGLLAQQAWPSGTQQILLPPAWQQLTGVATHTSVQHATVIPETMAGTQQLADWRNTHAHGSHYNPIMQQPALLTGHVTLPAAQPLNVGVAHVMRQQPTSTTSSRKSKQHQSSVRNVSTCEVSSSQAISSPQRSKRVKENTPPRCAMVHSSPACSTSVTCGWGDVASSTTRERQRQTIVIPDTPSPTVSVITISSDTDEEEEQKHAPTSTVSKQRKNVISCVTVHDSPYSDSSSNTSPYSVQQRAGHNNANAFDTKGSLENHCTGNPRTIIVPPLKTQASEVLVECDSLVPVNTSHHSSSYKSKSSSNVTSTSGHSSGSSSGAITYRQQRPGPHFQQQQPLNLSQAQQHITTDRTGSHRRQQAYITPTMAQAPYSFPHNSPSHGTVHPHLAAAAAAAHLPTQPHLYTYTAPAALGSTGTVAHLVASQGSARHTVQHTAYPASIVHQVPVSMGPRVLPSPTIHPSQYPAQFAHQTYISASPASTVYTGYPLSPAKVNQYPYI
For experiment [10], the target named is Mitogen-activated protein kinase 14 (Homo sapiens, UniProt Q16539). In words: Percentage p38alpha activity remaining in the presence of 25uM inhibitor.
Mitogen-activated protein kinase 14, sequence (Q16539 whole entry): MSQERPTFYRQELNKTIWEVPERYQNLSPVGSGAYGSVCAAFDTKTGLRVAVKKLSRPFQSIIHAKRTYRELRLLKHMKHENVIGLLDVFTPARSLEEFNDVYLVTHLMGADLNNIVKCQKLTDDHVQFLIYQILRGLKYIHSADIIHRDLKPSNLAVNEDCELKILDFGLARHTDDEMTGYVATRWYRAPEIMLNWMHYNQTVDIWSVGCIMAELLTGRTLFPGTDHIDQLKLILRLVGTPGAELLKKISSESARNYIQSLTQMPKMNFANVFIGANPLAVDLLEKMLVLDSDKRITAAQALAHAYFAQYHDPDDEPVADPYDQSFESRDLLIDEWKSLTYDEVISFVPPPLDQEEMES
Experiment [11] deals with T4, 3-phosphoinositide-dependent protein kinase 1 (Homo sapiens) (UniProt O15530).
T4 sequence (whole entry): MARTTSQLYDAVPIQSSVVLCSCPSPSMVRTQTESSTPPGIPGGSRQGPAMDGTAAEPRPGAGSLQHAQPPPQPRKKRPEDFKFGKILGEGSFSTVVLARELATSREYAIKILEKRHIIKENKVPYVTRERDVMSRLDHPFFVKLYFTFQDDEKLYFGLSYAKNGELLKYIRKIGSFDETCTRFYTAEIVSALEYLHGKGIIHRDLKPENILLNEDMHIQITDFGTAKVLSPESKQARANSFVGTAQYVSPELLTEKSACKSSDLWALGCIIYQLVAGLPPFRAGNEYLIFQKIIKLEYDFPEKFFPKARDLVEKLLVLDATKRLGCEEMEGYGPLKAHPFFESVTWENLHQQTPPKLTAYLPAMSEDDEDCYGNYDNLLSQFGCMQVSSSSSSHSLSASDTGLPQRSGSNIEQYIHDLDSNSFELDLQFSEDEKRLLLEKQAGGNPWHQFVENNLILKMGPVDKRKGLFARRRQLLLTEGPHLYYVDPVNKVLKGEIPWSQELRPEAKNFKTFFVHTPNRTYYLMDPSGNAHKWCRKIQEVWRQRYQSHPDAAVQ
The experiment is described as follows: Percentage PDK1 activity remaining in the presence of 0.01uM inhibitor. Particulars: filed as antagonist.

SMILES strings stand for the structures.

Serine/threonine-protein kinase Nek7 (Homo sapiens), sequence (Q8TDX7 whole entry, looked up): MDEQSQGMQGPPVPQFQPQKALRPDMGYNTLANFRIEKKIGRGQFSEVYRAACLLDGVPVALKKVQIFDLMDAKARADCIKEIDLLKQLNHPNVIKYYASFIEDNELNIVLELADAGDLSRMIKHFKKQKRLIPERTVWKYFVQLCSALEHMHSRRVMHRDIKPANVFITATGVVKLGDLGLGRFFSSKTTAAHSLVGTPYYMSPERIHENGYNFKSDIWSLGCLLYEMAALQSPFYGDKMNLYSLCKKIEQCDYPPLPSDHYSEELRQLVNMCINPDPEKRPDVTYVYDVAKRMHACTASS

On to `COc1cc(OC)c(/C=C2/C(=O)Nc3ccccc32)c(OC)c1`, for which the Activity was 82% in experiment [1]; 103% in experiment [2]; 91% in [3]; 62% in experiment [4]; 76% in [5]; 86% in experiment [6]. For the same compound, the Activity is 43% in [7], 99% in experiment [8], 96% in [9] and 92% in experiment [10].
As to `O=C(NCCCNc1nc(Nc2cccc(NC(=O)N3CCCC3)c2)ncc1I)c1cccs1`, the Activity in experiment [11] was 30%.
With `NCCNS(=O)(=O)c1ccc(Cl)c2ccncc12`, the Activity amounted to 65% in [1]; 102% in experiment [2]; 80% in experiment [3]; 60% in experiment [4]; 78% in [5]; 72% in [6]. In addition, the Activity in experiment [7] was 28%; in experiment [8] it was 86%; in [9], 98%; in experiment [10], 103%.
As to `CN[C@@H]1C[C@H]2O[C@@](C)([C@@H]1OC)n1c3ccccc3c3c4c(c5c6ccccc6n2c5c31)C(=O)N[C@H]4O` (stereo in doubt), the Activity in experiment [11] is 2%.

The record behind these values is ChEMBL document CHEMBL1150976, “The selectivity of protein kinase inhibitors: a further update” (Biochem J, 2007).
